# Values quoted from earlier work as cited in patent US20200289552A1, “SOLID COMPOSITION COMPRISING IODINE AGENT AND SODIUM CHLORIDE HAVING IMPROVED WATER SOLUBILITY, AND ANTIVIRAL AND ANTIMICROBIAL COMPOSITION FOR EYE, ORAL CAVITY, NASAL CAVITY OR INHALATION CONTAINING AQUEOUS SOLUTION THEREOF” (FLUCHEM LTD, priority 2017, published 2020).
# Columns and labels:
# [1] = U.S. patent Ser. No. 04/950,653
# [2] = stored sealed, room temperature and 65° C., for 3 years
# [3] = tested on: highly pathogenic H5N1 and low pathogenic H5N3, H7N7, and H9N7
substance,measurement,setting,value
povidone iodine,time to dissolve in water,[1],45 min
same,effective iodine loss,[2],about 0.5%
same,time to inactivate viruses below a detection limit,[3],less than 10 seconds
